The text below walks through data of US6747038B2, “Phenanthridine derivatives and antitumoral medicaments containing phenanthridine” (priority 2000, dated 2004).

The test system of the assay is panel of 12 human pathogenic tumour cell lines of six types of cancer. Briefly: in vivo-hollow fiber assay of the National Cancer Institute. Particulars: for NCI criteria fulfilled: (a) total points higher than 20, (b) subcutaneous points higher than 8, (c) cell kill characteristics; for Points (sum) / Points (intraperitoneal) / Points (subcutaneous): NCI point system; for Points (sum): 2 points per administration giving at least 50% reduction of tumour cell growth, maximum 96, hollow fibers in nude mice, intraperitoneal plus subcutaneous, 4 doses at 24 h intervals, two concentrations; for Points (intraperitoneal): intraperitoneally implanted hollow fibers in nude mice; for Points (subcutaneous): subcutaneously implanted hollow fibers in nude mice; for Cell killing properties: vital tumour cell mass of at least one cell line less than the starting value after treatment. As to the method: In order to examine the pharmacological properties, these compounds (BP-7, BP-8, BP-D8) as well as 6-Amino-11-(2′,4′-dimethoxyphenyl)benzo[c]-phenanthridine perchlorate (BP-D3) [PCT/WO 97/14683] were examined in an “in vivo-hollow fiber assay” of the National Cancer Institute (NCI), Bethesda, Md., USA.
Compounds were tested against a panel of 12 human pathogenic tumour cell lines of six types of cancer (non-small cell lung cancer, melanoma, breast cancer, ovarian cancer, colon cancer, CNS cancer).
The cell lines were cultivated in polyvinylidenfluorine hollow fibers which are permeable to small molecules and which were implanted into nude mice. Three hollow fibers were implanted every animal intraperitoneally and subcutaneously which means three tumor cell lines could be examined in each animal in two physiological sites.
The animals were treated four times with a dose of the test substance with a time interval of 24 hours. For this purpose, every compound was administered at two concentrations. At the end of the treatment the hollow fibers were regained and the number of the vital tumour cells or rather of the protein biomass was determined photometrically by an MTT-Formazan-Assay in order to determine the inhibition of growth by the phenanthridines. Mice with prepaired tumour cell cultures in hollow fibers which were only treated by solvent served as control.
The evaluation of test results is based on a point system given by NCI.
Each administration of a test substance which leads to a reduction of the tumour cell growth of at least 50% is given a score of two points. The maximum number of points for one compound is therefore 96 points (12 cell lines*2 implantation sites*2 concentrations of the test substance*2 points). In addition for further specification the results on subcutaneously and intraperitoneally implanted hollow fibers are treated separately. There are three criteria given by NCI. A test substance in the “in vivo-hollow fiber assay” has to fulfill at least one criterion in order to be regarded as suitable for further tests:
(a) the total sum of the points from intraperitoneal and subcutaneous application must be higher than 20.
(b) The total sum of the points of the subcutaneous application must be higher than 8.
(c) After the treatment the vital tumour cell mass of at least one cell line must be less than the starting value (cell kill characteristics).

Counter-ions that a name gives are not always drawn.

`COc1cc(C2Cc3ccccc3-c3nc(N)c4ccccc4c32)cc(OC)c1OC` (stereo not drawn) [BP-7, 6-Amino-11,12dihydro-11-(3′,4′,5′-trimethoxyphenyl)benzo[c]-phenanthridine hydrochloride]: the NCI criteria fulfilled result is “(b) and (c)”; the “Points (sum)” value is listed as 16 Points; the “Points (intraperitoneal)” value was 6 Points; the “Points (subcutaneous)” value turned out to be 10 Points. Further, the Cell killing properties entry is “Yes”.
Turning to `COc1cc(-c2cc3ccccc3c3nc(N)c4ccccc4c23)cc(OC)c1OC` [BP-D7, 6-Amino-11-(3′,4′,5′-trimethoxyphenyl)benzo[c]phenanthridine perchlorate], the NCI criteria fulfilled entry is “a, b and c”; the “Points (sum)” value stood at 28 Points; the “Points (intraperitoneal)” value was determined as 14 Points; the “Points (subcutaneous)” value is listed as 14 Points. In addition, the Cell killing properties entry is “Yes”. The “activity in the in vivo-hollow fiber assay” value (compared with all tested phenanthridines) is given as “highest activity”.
For `COc1ccc(-c2cc3ccccc3c3nc(N)c4ccccc4c23)c(OC)c1.[O-][Cl+3]([O-])([O-])O` [BP-D3, 6-Amino-11-(2′,4′-dimethoxyphenyl)benzo[c]phenanthridine perchlorate, reference compound], the NCI criteria fulfilled result was “(c) only”, the “Points (sum)” value was determined as 10 Points, the “Points (intraperitoneal)” value is reported as 2 Points and the “Points (subcutaneous)” value was determined as 8 Points. The Cell killing properties result is on record as “Yes”.
For the molecule `COc1ccc(C2Cc3ccccc3-c3nc(N)c4ccccc4c32)c(OC)c1OC` (stereo not drawn) [BP-8, 6-Amino-11,12dihydro-11-(2′,3′,4′-trimethoxyphenyl)benzo[c]-phenanthridine hydrochloride], the NCI criteria fulfilled result is “(b) and (c)”; the “Points (sum)” value is recorded as 20 Points; the “Points (intraperitoneal)” value is on record as 10 Points; the “Points (subcutaneous)” value is recorded as 10 Points. The Cell killing properties entry is listed as “Yes”.
